Source: patent US6355428B1, “Nucleic acid ligand interaction assays” (Genelabs Technologies, Inc., priority 1998, dated 2002)

Key:
[1] = tested on: A/T rich indicator duplex 5′-CTTTATTATTTT-3′ (SEQ ID NO: 2 and complement) versus competitor oligonucleotides; test: Fluorescence quenching competition assay with unlabeled competitor duplexes; format: binding; settings: for sequence preference from competitor oligos of Table III (FIG. 6): 0.4 μM drug, 0.4 μM unlabeled duplex competitor; for 5 bp A/T site bound most strongly / preferred (FIGS. 11, 12) / discrimination among 5 bp A/T binding sites (FIGS. 11, 12): 5 bp A+T site competitors, Table VI
Description: Direct assays, as described above, are useful for first level screening of ligand-oligonucleotide binding, e.g. preference for DNA vs. RNA, or A/T vs. C/G rich sequences. In a “next-stage” assay, termed herein a competition or competitive assay, a binding oligonucleotide for a particular ligand, such as determined from direct assays, is used as an “indicator” for competitive studies, which give a further level of detail about ligand binding preferences. A competition experiment starts with first and second indicator oligonucleotides, as described above, containing, respectively, a first group effective to produce a detectable signal, and a second group effective to alter this signal. At the beginning of the assay, the ligand is bound to a duplex of the sequences. Again, experimental conditions of temperature, salt content, etc. are preferably adjusted such that, in the absence of the ligand, the oligonucleotides would exist primarily in single-stranded form. As noted above, the preferred temperature is somewhat higher than the Tm of the duplex (in the absence of ligand) under the conditions of the assay. If desired, for the sake of convenience, conditions may be adjusted so that the assay can be carried out at or near room temperature.
At the beginning of the assay, the indicator sequences form a duplex in the presence of the ligand, so fluorescence is at a minimum for the system. (When other detection systems are used, the signal observed will be that in which the first and second groups are in close proximity.) A “competitor” sequence, having no second (e.g. quenching) group, is then added, typically as a duplex with its complementary sequence. The competing sequence tends to remove the ligand from the indicator duplex at concentrations that become lower as the affinity of the competing sequence for the ligand becomes greater. Alternatively, the competing sequence removes the ligand more effectively at concentrations equimolar with the indicator duplex as the affinity of the competing sequence for the ligand becomes greater. As the ligand is removed, the indicator sequences denature to single-stranded form, quenching is no longer effective (in an F/Q system), and fluorescence increases.
Competition Assays: Competition experiments were generally done in […] HEPES, pH 7.5, 0.1 mM EDTA and 50 mM NaCl. The drug concentration used in the competition assays depends upon the affinity of the drug for a given indicator. For the competition experiments shown, the netropsin and distamycin concentrations used were 0.4 μM. The amount of competitor oligo used was varied from 0.2 μM to 1.0 μM. The data shown is from competition experiments using 0.4 μM unlabeled duplex competitors (see Tables III-VI for the sequences of the competitor oligos).
An unlabeled competitor duplex, selected from those whose sequences are given in Table […], was added at a 0.4 μM concentration, and the change in fluorescence was noted.
Changes in fluorescence of the indicator duplex/netropsin mixture on adding each competitor oligonucleotide are given in FIG. 12.

[2] = tested on: indicator oligo SEQ ID NO: 12 (mixed sequence) versus unlabeled competitor dsDNA; test: ECL competitive assay with 12-base duplex competitor oligos; format: binding; settings: competitor having only one A/T base pair; 0.008 to 8.33 μM competitor
Method: Three 12-base duplex competitor oligos, containing 1-, 5-, and 8-base stretches of A/T's flanked by G/C sequences, were tested as competitors, using distamycin as the binding ligand and SEQ ID NO: 12 (mixed sequence) as the indicator oligo. The indicator pair was labeled with a 5′ ruthenium chelate on one strand and a 3′biotin on the complementary strand, as described above and in Example 14.
Distamycin was premixed at […] with 0.25 nM indicator oligo. The assay was conducted as described in Example 14, using the Igen Origen® apparatus. Ligand binding, which stabilizes the duplexed form of the indicator DNA, results in an increase in the ECL signal. Unlabeled competitor dsDNA (no ruthenium or biotin label) was then added at concentrations ranging from 0.008 to 8.33 μM, and the decrease in the signal was monitored, as shown in FIG. 13.
An indicator pair of oligonucleotides, having the sequence SEQ ID NO: 12 and complement, were labeled with a 5′ ruthenium (bipy) chelate on one strand, as described in U.S. Pat. No. 5,635,347 and references cited therein, and with a 3′ biotin on the complementary strand. […] The biotinylated strand of DNA was captured on the bead surface, and any ruthenium captured by the streptavidin via drug-stabilized hybridization of the indicator duplex was quantified with the IGEN Origen™ analyzer. […]

[3] = 5′-XAATTY-3′ competitor series, Table V

Compound | sequence preference from competitor oligos of Table III (FIG. 6) [1] | 5 bp A/T site bound most strongly / preferred (FIGS. 11, 12) [1] | discrimination among 5 bp A/T binding sites (FIGS. 11, 12) [1] | X and Y combinations that competed most effectively (FIG. 9) [1, 3] | sensitivity to bases at the edge of the AATT site (FIGS. 9 and 10) [1, 3] | preferred 5 bp binding site ([1]; concluded from 5′-XAATTY-3′ series) | competition by competitor oligonucleotide (FIG. 13) [2]
Cn1cc(NC(=O)c2cc(NC(=O)c3cc(NC=O)cn3C)cn2C)cc1C(=O)NCCC(=N)N [Distamycin, distamycin] | strongly prefer A/T rich DNA | 5′-AATTA-3′ | relatively strong preferences | AA/TT, CA/TG, GA/TC, and TA/TA | much more sensitive | 5′-AATTA-3′ | little competition was observed
Cn1cc(NC(=O)c2cc(NC(=O)CN=C(N)N)cn2C)cc1C(=O)NCCC(=N)N [Netropsin, netropsin] | strongly prefer A/T rich DNA | slight preference for the AAAAA site | considerably less discrimination |  |  |  | 
